Values quoted from earlier work in US10513689B2, “Culture media for multipotent stem cells” (Hope Biosciences LLC, priority 2016, dated 2019).

System: MSCs
Settings: Tamama et al., 2010

Substance: EGF: Epidermal growth factor, mitogen of MSCs
- increase in the number of colony-forming units: 25%
